Patent US9446018B2, “Pharmaceutical composition for treating or preventing angina or myocardial infarction induced by myocardial ischemia” (SINPHAR TIAN-LI PHARMACEUTICAL CO., LTD. (HANGZHOU), priority 2009, dated 2016)

Test system: myocardial cells (death induced from partial myocardial ischemia)
Assay: Embodiment 1: myocardial infarct size after 1 h ligature of the left descending coronary branch and 1 h reperfusion (TTC staining)
Type: in vivo, Crl:CD(SD) SPF rats

Compound	effect on myocardial infarct size compared with the blank control group (in words) (rat, in vivo)	effect on myocardial infarct size compared with the blank control group (in words) (Embodiment 1, Table 1, STA-2 alone in high dose or in low dose)	Myocardial Infarction Percentage (%) (rat, tube-fed once daily 7 days + IP 1/3 dose after ligation, isosorbide dinitrate 18.75 mg/Kg, STA-2 low dose 250 mg/Kg, Aspirin 8.3 mg/Kg, mean ± SEM)
O=[N+]([O-])O[C@H]1CO[C@H]2[C@@H]1OC[C@H]2O[N+](=O)[O-] [isosorbide dinitrate]	significant reduction in myocardial infarct size		
CC(=O)Oc1ccccc1C(=O)O [Aspirin]		did not produce any statistically meaningful effects	14.75 ± 2.8
